Source: patent US8987266B2, “EGFR mutations” (Genentech, Inc., priority 2004, dated 2015)

Tests used:
A431 xenografts = details: nude mice; cited from earlier work
HN5 xenografts = details: nude mice; cited from earlier work
H1975 tumor cell line = test: treatment of H1975 tumor cell line; assay type: cell-based; details: H1975, EGFR T790M in combination with L858R
[1] = combined with paclitaxel, cisplatin, gemcitabine, and doxorubicin; cited from earlier work

For C#Cc1cccc(Nc2ncnc3cc(OCCOC)c(OCCOC)cc23)c1 [erlotinib], the “growth inhibition of A431 xenografts” value (A431 xenografts) is given as “marked growth inhibition”, the “growth inhibition of HN5 xenografts” value (HN5 xenografts) is given as “marked growth inhibition” and the “response of tumor cell line to treatment” value (H1975 tumor cell line) is given as “exhibited resistance”. The “interaction with chemotherapy agents” value [1] was “additive interaction”.
